# Columns and labels:
# [1] = system: 40 more frequent nonsense mutations found in DMD gene; experiment: Dual reporter readthrough on the 40 most frequent DMD nonsense mutations; format: cell-based; parameters: number of DMD nonsense sequences on which readthrough is promoted: dose or concentration left out as unconfirmed
# Excerpt: Complementary oligonucleotides corresponding to TP53 R213X nonsense mutations and 9 nucleotides on both sides are ligated into the pAC99 dual reporter plasmid, as previously described (Premature stop codons involved in muscular dystrophies show a broad spectrum of readthrough efficiencies in response to gentamicin treatment, Bidou et al, Gene Therapy 1 Apr. 2004, 11(7):619-627). This dual reporter is used to quantify stop-codon readthrough through the measurement of luciferase and beta-galactosidase (internal calibration) activities, as previously described (Stahl et al, Versatile vectors to study recoding: conservation of rules between yeast and mammalian cells. Nucleic Acids Res 1995; 23:1557-60). Readthrough levels for nonsense mutations were analysed in the presence or absence of tested molecules. Cells were seeded in a 6-well plate. […] The following day, they are rinsed with fresh medium, with or without readthrough inducers. […] Readthrough efficiency was estimated by calculating the ratio of luciferase activity to beta-galactosidase activity obtained with the test construct, with normalisation against an in-frame control construct. […]
# Each nonsense mutation (+9 nucleotides in each side) has been cloned into the dual reporter previously used. Stop codon readthrough efficiency has been quantified either without drug or in presence of gentamicin or TLN68, in 6 independent experiments. […]
# [2] = system: -1 programmed ribosomal frameshifting from HIV-1; experiment: Frameshifting test, dual reporter, NIH3T3 cells; format: cell-based, mouse; details: NIH3T3, TLN68 80 μM, HIV-1 frameshift signal
# Method: To determinate if TLN68 alter global translational fidelity or if it is specific of readthrough event the inventors tested capacity of this molecule to induce frameshifting. They used a frameshift target which have already been used to study the minus1 frameshift signal of the retrovirus HIV-1 (Stahl et al, 1995). This 54 nucleotide sequence was inserted in the dual reporter vector and used to transfect NIH3T3 cells. Transfected cells were treated or not with TLN68 at 80 μM.
# [3] = system: +1 programmed ribosomal frameshifting from OAZ1 gene; experiment: Frameshifting test, dual reporter; format: cell-based; details: treated vs untreated cells (FIG. 8)
# Excerpt: TLN468 has no impact on both −1 and +1 programmed ribosomal frameshifting (PRF). No significant difference is observed between treated and untreated cells (right and left bars respectively). TLN468 has been tested on −1 PRF from HIV-1 and +1 PRF from OAZ1 gene.
# Bax mRNA (target of p53) = experiment: RT-qPCR of Bax mRNA in HDQ-P1 cells; format: cell-based, human; details: HDQ-P1, TLN68 80 μM, 48 hours, n=3
# Method: (§1) For the analysis of mRNA levels for p53 and its transcriptional target genes, Bax, the inventors extracted total RNA from HDQ-P1 cells that had or had not been treated with G418 (400 μM) or TLN68 (80 μM) for 48 hours (RNeasy Mini Kit, Qiagen). The RNA was treated with DNAse I (RNase-free DNase) and quantified with a Nanodrop spectrometer (ThermoScientific). The absence of RNA degradation was confirmed by agarose gel electrophoresis. The first-strand cDNA was synthesized from 2 μg of total RNA, with random primers and the SuperScript II Reverse Transcriptase (Invitrogen), as recommended by the manufacturer. Quantitative PCR was then carried out on equal amounts of the various cDNAs, with a CFX96 thermocycler (Biorad), and the accumulation of products was monitored with the intercalating dye FastStart Universal SYBRGreen Master (ROX) reagent (Roche). The inventors quantified mRNA levels relative to three reference mRNAs: RPL32, Hprt1 and HMBS. In each experiment, results are expressed relative to those for untreated cells, for which the value obtained was set to 1. Relative levels of gene expression were calculated at early stages of PCR, when the amplification was exponential and might, therefore, be correlated with the initial number of copies of the transcript. […] For the quantification of each mRNA, three independent experiments (from biological replicates) were performed in triplicate. […]
# TP53-R213X mRNA = experiment: RT-qPCR of mutant p53 mRNA in HDQ-P1 cells; format: cell-based, human; details: HDQ-P1, 48 hours; TLN68 80 μM, TLN309 40 μM; n=3
# Method: as §1
smiles,measurement,setting,value
Cc1nc(NC(=N)N)nc2ccccc12 [TLN68],readthrough compared with gentamicin on the DMD set of sequences,"[1]; gentamicin 2.5 mM, same conditions",outperforms gentamicin
same,number of DMD nonsense sequences on which readthrough is promoted,"[1]; out of 40 tested, 6 independent experiments",28
same,impact on -1 translational frameshifting,[2],no impact on translational frameshifting
same,impact on +1 programmed ribosomal frameshifting,[3],no impact
same,induction of bax mRNA level relative to untreated,Bax mRNA (target of p53),3 fold
same,stabilisation of TP53-R213X mRNA relative to untreated,TP53-R213X mRNA,6 fold

# Source: patent US20230183187A1, “QUINAZOLINE COMPOUNDS AS INHIBITORS OF PREMATURE TERMINATION CODONS” (CENTRE NATIONAL DE LA RECHERCHE SCIENTIFIQUE, priority 2020, published 2023)
